The values below come from EP1171440B1, “SUBSTITUTED-3-CYANO-[1.7],[1.5], AND [1.8]-NAPHTHYRIDINE INHIBITORS OF TYROSINE KINASES” (Wyeth Holdings Corporation, priority 1999, dated 2000).

Converted amounts (≈) assume the structure as drawn. Like-named read-outs stand apart in the source and are kept apart here. Some results are limits rather than exact numbers.

The target of test [1] is T1, EGF-R Kinase (recombinant enzyme) (Homo sapiens, UniProt P00533).
T1 construct: containing the EGFR cDNA encoding amino acids 645 - 1186 preceded by Met-Ala-(His)6; made in house; host or cells: Sf9 insect cells infected with recombinant baculovirus vHcEGFR52
The test is described as follows: Inhibition of Epidermal Growth Factor Receptor Kinase (EGF-R) using recombinant enzyme, RR-SRC peptide phosphorylation with 33P-ATP. The class given is biochemical. The settings on record: for inhibition at 0.5 µM: 0.5 µM concentration of test compound, read-out: % Inhibition @ 0.5; for IC50: recombinant His-tagged cytoplasmic domain of EGFR, RR-SRC peptide, 90 min at room temperature, read-out: IC50. On the procedure: Representative test compounds were evaluated for their ability to inhibit the phosphorylation of the tyrosine residue of a peptide substrate catalyzed by the enzyme epidermal growth factor receptor kinase. […] The enzyme used in this assay is the His-tagged cytoplasmic domain of EGFR. A recombinant baculovirus (vHcEGFR52) was constructed containing the EGFR cDNA encoding amino acids 645 - 1186 preceded by Met-Ala-(His)6 . Sf9 cells in 100 mm plates were infected at an moi of 10 pfu/cell and cells were harvested 48 h post infection. A cytoplasmic extract was prepared using 1% Triton X-100 and applied to Ni-NTA column. After washing the column with 20 mM imidazole, HcEGFR was eluted with 250 mM imidazole (in 50 mM Na2HPO4, pH 8.0, 300 mM NaCl). Fractions collected were dialyzed against 10 mM HEPES, pH 7.0, 50 mM NaCl, 10% glycerol, 1ug/mL antipain and leupeptin and 0.1 mM Pefabloc SC. The protein was frozen in dry ice/methanol and stored -70° C.
Test compounds were made into 10 mg/mL stock solutions in 100% dimethylsulfoxide (DMSO). Prior to experiment, stock solutions were diluted to 500 uM with 100% DMSO and then serially diluted to the desired concentration with HEPES buffer (30 mM HEPES pH 7.4).
For the enzyme reaction, 10 uL of each inhibitor (at various concentrations) were added to each well of a 96-well plate. To this was added 3 uL of enzyme (1:10 dilution in 10mM HEPES, pH 7.4 for final conc. of 1:120). This was allowed to sit for 10 min on ice and was followed by the addition of 5 ul peptide (80 uM final conc.), 10ul of 4X Buffer (Table A), 0.25 uL ^33P-ATP and 12 uL H2O. The reaction was allowed to run for 90 min at room temperature and was followed by spotting the entire volume on to precut P81 filter papers. The filter discs were washed 2X with 0.5% phosphoric acid and radioactivity was measured using a liquid scintillation counter. Table A
The IC50 is the concentration of test compound needed to reduce the total amount of phosphorylated substrate by 50%. The % inhibition of the test compound was determined for at least three different concentrations and the IC50 value was evaluated from the dose response curve. […] CPM(control) is in units of counts per minute and was a number expressing the amount of radiolabeled ATP (γ-^33P) incorporated into the RR-SRC peptide substrate by the enzyme after 90 minutes at room temperature in the absence of test compound as measured by liquid scintillation counting. The CPM values were corrected for the background counts produced by ATP in the absence of the enzymatic reaction. Where it was possible to determine an IC50 value, this is reported in TABLE 1 otherwise the % inhibition at 0.5 µM concentration of test compound is shown in TABLE 1.

Test [2] deals with Epithelial Cell Kinase (ECK) (Homo sapiens, UniProt P29317). The test is described as follows: Inhibition of Epithelial Cell Kinase (ECK), nonradioactive peptide phosphorylation plate assay. Type of test: biochemical. The following applies: pH 7.2; multiple entries = tested multiple times. On the procedure: In this standard pharmacological test procedure, a biotinylated peptide substrate is first immobilized on neutravidin-coated microtiter plates. The test drug, the Epithelial Cell Kinase (ECK), Mg^++, sodium vanadate (a protein tyrosine phosphatase inhibitor), and an appropriate buffer to maintain pH (7.2) are then added to the immobilized substrate-containing microtiter wells. ATP is then added to initiate phosphorylation. After incubation, the assay plates are washed with a suitable buffer leaving behind phosphorylated peptide which is exposed to horse radish peroxidase (HRP)-conjugated anti-phosphotyrosine monoclonal antibody. The antibody-treated plates are washed again and the HRP activity in individual wells is quantified as a reflection of degree of substrate phosphorylation. This nonradioactive format was used to identify inhibitors of ECK tyrosine kinase activity where the IC50 is the concentration of drug that inhibits substrate phosphorylation by 50%. Multiple entries for a given compound indication it was tested multiple times.

Test [3] concerns the target Mitogen Activated Protein Kinase (Mek-Erk) (Homo sapiens, UniProt P28482+Q02750). The test is described as follows: Mitogen Activated Protein Kinase (MAPK) coupled MEK 1 / ERK2 assay. The class given is biochemical. The following applies: separate entries = evaluated more than one time. On the procedure:
To evaluate inhibitors of the MAP (mitogen activated protein) kinase a two component coupled standard pharmacological test procedure, which measures phosphorylation of a serine/threonine residue in an appropriate sequence in the substrate in the presence and absence of a putative inhibitor, was used. Recombinant human MEK 1 (MAPKK) was first used to activate recombinant human ERK2 (MAPK) and the activated MAPK (ERK) was incubated with substrate (MBP peptide or MYC peptide) in the presence of ATP, Mg^+2 and radiolabeled ^33P ATP. The phosphorylated peptide was captured on a P 81 phosphocellulose filter (paper filter or embedded in microtiter plate) washed and counted by scintillation methods.
The peptide substrates used in the assay are MBP, peptide substrate ([…]), or synthetic Myc substrate, ([…]•5 TFA. The recombinant enzymes used were prepared as GST fusion proteins of human ERK 2 and human MEK 1. Inhibitor samples were prepared as 10X stocks in 10% DMSO and an appropriate aliquot was used to deliver either 10 ug/ml for a single point screening dose or 100, 10, 1, and 0.1 uM final concentration for a dose response curve. Final DMSO concentrations were less than or equal to 1%.
The reaction was run as follows in 50 mM Tris kinase buffer, pH 7.4 in a reaction volume of 50 ul. The appropriate volume of kinase buffer and inhibitor sample was added to the tube. Appropriate dilution of enzyme was delivered to give 2-5 ug recombinant MAPK (Erk ) per tube. The inhibitor was incubated with MAPK (Erk) for 30 min at 0 deg. C. Recombinant Mek (MAPKK) ( 0.5-2.5 ug) or fully activated Mek (0.05-0.1 units) was added to activate the Erk and incubated for 30 min at 30° C. Then substrate and gamma ^33P ATP was were added to give a final concentration of 0.5- 1 mM MBPP or 250-500 uM Myc; 0.2-0.5 uCi gamma ^33P ATP/tube; 50 µM ATP final concentration. Samples were incubated at 30°C for 30 minutes and the reaction was stopped by adding 25 µl of ice cold 10 %TCA. After samples were chilled on ice for 30 min, 20 µl of sample was transferred onto P 81 phosphocellulose filter paper or appropriate MTP with embedded P 81 filter. Filter papers or MTP were washed 2 times with a large volume of 1% acetic acid, then 2 times with water. The filters or MTP were briefly air dried before addition of scintillant and samples were counted in the appropriate scintillation counter set up for reading ^33P isotope. Samples included a positive control (activated enzyme plus substrate); a no enzyme control; a no substrate control; samples with different concentrations of putative inhibitor; and samples with reference inhibitors (other active compounds or non-specific inhibitors such as staurosporine or K252 B).
The raw data was captured as cpm. Sample replicates were averaged and corrected for background count. Mean cpm data was tabulated by group and % inhibition by a test compound was calculated as (corrected cpm control- corrected. cpm sample/control) X 100 = % inhibition. If several concentrations of inhibitor were tested, IC50 values (the concentration which gives 50% inhibition) were determined graphically from the dose response curve for % inhibition or by an appropriate computer program. The results obtained for representative compounds of this invention are listed in TABLE 3 where there may be separate entries for the same compound; this is an indication that the compound was evaluated more than one time.

The test system of a further test is A2780DDP. The test is described as follows: Inhibition of Cancer Cell Growth as Measured by Cell Number (Sulforhodamine B). The class given is cell-based, Human. The settings on record: 48 hours exposure. On the procedure: (§1) After 48 hours exposure to test compounds, cells were fixed with trichloroacetic acid, and stained with Sulforhodamine B. After washing with trichloroacetic acid, bound dye was solubilized in 10 mM Tris base and optical density was determined using a plate reader. Under conditions of the assay the optical density is proportional to the number of cells in the well. […] The test procedure is described in details by Philip Skehan et. al, J.Natl. Canc. […] The Her2Neu cell line is a 3T3 line that has bbeen transfected with Her2 receptor kinase.

For a further test, the system named is A2780S. The description is as above. Type of test: cell-based, Human. The settings on record: 48 hours exposure. On the procedure: as §1
The subject of another test is A431. The description is as above. Type of test: cell-based, Human. The settings on record: 48 hours exposure. On the procedure: as §1
The next test concerns LOX. The test is described as above. The class given is cell-based, Human. The following applies: 48 hours exposure. On the procedure:
as §1

Another test relates to MDA435. The test is described as above. Type of test: cell-based, Human. The settings on record: 48 hours exposure. On the procedure: as §1
The next test relates to SKBR3. The test is described as above. The class given is cell-based, Human. On the procedure: as §1
A further test relates to SW620. The description is as above. Type of test: cell-based, Human. On the procedure:
as §1

Setting [4] is: Homo sapiens, 48 h, read-out: IC50.
Where [5] appears, read: Homo sapiens, A-431, 48 h, read-out: IC50.
Where [6] appears, read: Homo sapiens, MDA435, 48 h, read-out: IC50.
The mark [7] stands for this setting: Homo sapiens, SK-BR-3, 48 hours exposure, read-out: IC50.
[8] abbreviates: Homo sapiens, SW-620, 48 hours exposure, read-out: IC50.

Chain of Mitogen Activated Protein Kinase (Mek-Erk) (P28482 2-360): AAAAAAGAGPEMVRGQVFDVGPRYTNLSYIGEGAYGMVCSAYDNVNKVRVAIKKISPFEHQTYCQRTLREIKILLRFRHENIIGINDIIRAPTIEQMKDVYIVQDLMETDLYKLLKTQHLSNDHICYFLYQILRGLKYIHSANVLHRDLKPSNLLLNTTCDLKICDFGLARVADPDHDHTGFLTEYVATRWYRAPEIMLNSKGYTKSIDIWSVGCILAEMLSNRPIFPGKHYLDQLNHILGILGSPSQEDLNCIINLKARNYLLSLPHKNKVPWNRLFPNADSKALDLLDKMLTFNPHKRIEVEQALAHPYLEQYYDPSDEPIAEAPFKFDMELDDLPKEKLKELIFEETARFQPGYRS
Chain of Mitogen Activated Protein Kinase (Mek-Erk) (Q02750 whole entry): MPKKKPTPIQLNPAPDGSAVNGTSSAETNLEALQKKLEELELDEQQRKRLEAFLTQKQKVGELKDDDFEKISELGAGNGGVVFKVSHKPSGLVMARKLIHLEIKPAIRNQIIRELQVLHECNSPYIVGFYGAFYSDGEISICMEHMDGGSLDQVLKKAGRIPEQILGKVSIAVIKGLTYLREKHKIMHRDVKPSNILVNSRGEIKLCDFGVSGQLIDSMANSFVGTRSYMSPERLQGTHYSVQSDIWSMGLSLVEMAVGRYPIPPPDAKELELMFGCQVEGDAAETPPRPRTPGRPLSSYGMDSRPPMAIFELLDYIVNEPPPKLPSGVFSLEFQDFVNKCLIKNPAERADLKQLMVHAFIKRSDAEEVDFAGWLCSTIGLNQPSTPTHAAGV
Chain of Epithelial Cell Kinase (ECK) (P29317 24-976, species assumed): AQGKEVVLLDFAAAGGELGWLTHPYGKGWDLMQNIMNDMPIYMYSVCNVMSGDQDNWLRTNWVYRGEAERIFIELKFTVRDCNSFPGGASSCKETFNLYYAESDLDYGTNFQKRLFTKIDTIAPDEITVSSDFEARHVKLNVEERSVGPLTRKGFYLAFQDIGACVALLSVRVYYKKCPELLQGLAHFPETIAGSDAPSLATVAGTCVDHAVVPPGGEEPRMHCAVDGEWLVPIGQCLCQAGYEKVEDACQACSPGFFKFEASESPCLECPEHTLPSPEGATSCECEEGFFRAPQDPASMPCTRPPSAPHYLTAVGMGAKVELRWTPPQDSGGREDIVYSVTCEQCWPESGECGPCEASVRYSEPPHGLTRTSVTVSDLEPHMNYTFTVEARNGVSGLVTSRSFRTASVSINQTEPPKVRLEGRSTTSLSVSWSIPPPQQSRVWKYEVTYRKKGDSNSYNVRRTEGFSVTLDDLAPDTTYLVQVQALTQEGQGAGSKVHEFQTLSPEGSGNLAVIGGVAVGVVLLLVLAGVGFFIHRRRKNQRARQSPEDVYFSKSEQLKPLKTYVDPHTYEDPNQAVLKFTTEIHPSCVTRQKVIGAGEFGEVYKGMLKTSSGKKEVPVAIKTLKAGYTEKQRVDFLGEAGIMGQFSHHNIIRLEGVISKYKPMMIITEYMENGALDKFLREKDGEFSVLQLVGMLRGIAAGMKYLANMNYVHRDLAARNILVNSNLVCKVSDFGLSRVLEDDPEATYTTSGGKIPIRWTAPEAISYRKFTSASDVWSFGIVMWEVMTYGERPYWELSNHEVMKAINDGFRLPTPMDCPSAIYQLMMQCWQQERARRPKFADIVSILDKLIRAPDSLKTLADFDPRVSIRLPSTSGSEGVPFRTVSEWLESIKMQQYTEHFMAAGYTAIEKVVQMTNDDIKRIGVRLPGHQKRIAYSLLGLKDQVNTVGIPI
T1 sequence (P00533 669-1210): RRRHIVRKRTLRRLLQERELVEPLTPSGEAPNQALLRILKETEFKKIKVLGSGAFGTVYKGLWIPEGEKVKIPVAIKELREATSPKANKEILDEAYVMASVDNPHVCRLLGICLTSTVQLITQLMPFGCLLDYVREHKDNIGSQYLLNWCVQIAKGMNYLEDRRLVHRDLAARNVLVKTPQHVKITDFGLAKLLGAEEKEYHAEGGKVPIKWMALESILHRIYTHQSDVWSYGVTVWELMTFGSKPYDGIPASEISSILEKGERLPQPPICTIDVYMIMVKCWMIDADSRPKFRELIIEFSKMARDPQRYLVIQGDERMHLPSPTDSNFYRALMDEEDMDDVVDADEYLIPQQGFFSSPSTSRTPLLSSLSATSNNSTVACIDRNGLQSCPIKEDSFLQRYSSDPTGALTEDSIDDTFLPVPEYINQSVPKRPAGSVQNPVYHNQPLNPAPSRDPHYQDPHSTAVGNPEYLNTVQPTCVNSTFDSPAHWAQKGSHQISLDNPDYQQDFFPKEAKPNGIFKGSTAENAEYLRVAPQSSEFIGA

Turning to `N#Cc1cnc2ccc(OCCCN3CCOCC3)nc2c1Nc1cccc(Br)c1` [Example 44, 4-(3-Bromo-phenylamino)-6-(3-morpholin-4-yl-propoxy)-[1.5]naphthyridine-3-carbonitrile], the inhibition at 0.5 µM in test [1] was determined as 25.4%. Further, the values for the IC50 in [1], in [2] and in [3] were 1000 nM, over 2100 nM and over 100000 nM, respectively.

For `N#Cc1cnc2cnc(NCCN3CCOCC3)cc2c1Nc1cccc(Br)c1` [Example 63, 4-(3-Bromo-phenylamino)-6-(2-morpholino-4-yl-ethylamino)-[1.7]naphthyridine-3-carbonitrile], the IC50 in test [1] stood at 1000 nM; in the test on A2780DDP (setting [4]), 0.8 µg/mL (≈ 1.76 µM); in the test on A2780S (setting [4]), 0.5 µg/mL (≈ 1.1 µM); with A431 (setting [5]), 0.5 µg/mL (≈ 1.1 µM); in the test with LOX (Homo sapiens, read-out: IC50), 57 µg/mL (≈ 126 µM); in the test on MDA435 (setting [6]) it was 49 µg/mL (≈ 108 µM). Further, the figures for the IC50 in the test on SKBR3 (setting [7]) and with SW620 (setting [8]) were 0.4 µg/mL (≈ 0.882 µM) and 41 µg/mL (≈ 90.4 µM), respectively.

Regarding `N#Cc1cnc2cnc(F)cc2c1Nc1ccc(F)c(Cl)c1` [Example 69, 4-(3-Chloro-4-fluoro-phenylamino)-6-fluoro-[1.7]naphthyridine-3-carbonitrile], the IC50 in test [2] was over 3100 nM.

Consider `CC#CC(=O)Nc1cnc2ncc(C#N)c(Nc3cccc(Br)c3)c2c1` [Example 24, But-2-ynoic acid [5-(3-bromo-phenylamino)-6-cyano-[1.8]-naphthyridin-3-yl]-amide], for which the IC50 in test [1] is 100 nM; in [2], 30 nM; in [3], over 100000 nM.

Turning to `N#Cc1cnc2cnc(F)cc2c1Nc1cccc(Br)c1` [Example 57, 4-(3-Bromo-phenylamino)-6-fluoro-[1.7]naphthyridine-3-carbonitrile], the IC50 in [1] was 8 nM; in [3] it was over 100000 nM; in the test on A2780DDP (setting [4]), over 5 µg/mL; in the test with A2780S (setting [4]), 3.33 µg/mL (≈ 9.7 µM); with A431 (setting [5]) it was 3.92 µg/mL (≈ 11.4 µM); in the test on MDA435 (setting [6]), over 5 µg/mL. Also, the IC50 in the test with SKBR3 (setting [7]) and with SW620 (setting [8]) was over 5 µg/mL throughout.

`Cc1ccc(Nc2c(C#N)cnc3ccc(OCCCN4CCOCC4)nc23)cc1O` [Example 43, 4-(3-Hydroxy-4-methyl-phenylamino)-6-(3-morpholin-4-yl-propoxy)-[1.5]naphthyridine-3-carbonitrile]: in [1], the inhibition at 0.5 µM was 37.1%. Besides, the IC50 was 1000 nM in [1], over 2300 nM in test [2] and over 100000 nM in [3].

Consider “1-[4-(3-Bromo-phenylamino)-3-cyano-[1.7]naphthyridin-6-yl]-4-dimethylamino- pyridinium fluoride [Example 65]”, for which the IC50 with A2780DDP is recorded as 52 µg/mL; in the test with A2780S it was 31 µg/mL; in the test on A431 it was 59 µg/mL; in the test on LOX it was 56 µg/mL; in the test with MDA435, 47 µg/mL; in the test with SKBR3 (48 hours exposure), 41 µg/mL. This compound also had an IC50 in the test with SW620 (48 hours exposure) of 42 µg/mL.

What is called inhibition is how much of the control response was suppressed. A word on the IC50: it is the midpoint of a concentration-inhibition curve.
